Test results taken from patent US12485123B2, “1H-pyrazolo[4,3-d]pyrimidine compounds as toll-like receptor 7 (TLR7) agonists” (BRISTOL-MYERS SQUIBB COMPANY, priority 2020, dated 2025).

Columns and labels:
CD69 = test: Induction of CD69 in human whole blood; type: cell-based; settings: 17 hrs incubation, CD69 surface staining, 100% set to 1 uM of resiquimod, average where assay repeated, read-out: hWB CD69 EC50
Description: Induction of Type I Interferon Genes (MX-1) and CD69 in Human Blood
The induction of Type I interferon (IFN) MX-1 genes and the B-cell activation marker CD69 are downstream events that occur upon activation of the TLR7 pathway. The following is a human whole blood assay that measures their induction in response to a TLR7 agonist.
Heparinized human whole blood was harvested from human subjects and treated with test TLR7 agonist compounds at 1 mM. The blood was diluted with RPMI 1640 media and Echo was used to predot 10 nL per well giving a final concentration of 1 uM (10 nL in 10 uL of blood). After mixing on a shaker for 30 sec, the plates were covered and placed in a 37° C. chamber for o/n=17 hrs. Fixing/lysis buffer was prepared (5×→1× in H2O, warm at 37° C.; Cat #BD 558049) and kept the perm buffer (on ice) for later use.
For surface markers staining (CD69): prepared surface Abs: 0.045 ul hCD14-FITC (ThermoFisher Cat #MHCD1401)+0.6 ul hCD19-ef450 (ThermoFisher Cat #48-0198-42)+1.5 ul hCD69-PE (cat #BD555531)+0.855 ul FACS buffer. Added 3 ul/well, spin 1000 rpm for 1 min and mixed on shaker for 30 sec, put on ice for 30 min. Stop stimulation after 30 minutes with 70 uL of prewarmed 1× fix/lysis buffer and use Feliex mate to resuspend (15 times, change tips for each plate) and incubate at 37 C for 10 minutes.
Centrifuge at 2000 rpm for 5 minutes aspirate with HCS plate washer, mix on shaker for 30 sec and then wash with 70 uL in dPBS and pelleted 2×s (2000 rpm for 5 min) and 50 ul wash in FACS buffer pelleted 1×s (2000 rpm for 5 min). Mix on shaker for 30 sec. For Intracellular markers staining (MX-1): Add 50 ul of BD Perm buffer III and mix on shaker for 30 sec. Incubate on ice for 30 minutes (in the dark). Wash with 50 uL of FACS buffer 2× (spin @2300 rpm×5 min after perm) followed by mixing on shaker for 30 sec. Resuspended in 20 ul of FACS buffer containing MX1 antibody ( )(4812)-Alexa 647: Novus Biologicals #NBP2-43704AF647) 20 ul FACS bf+0.8 ul hIgG+0.04 ul MX-1. Spin 1000 rpm for 1 min, mix on shaker for 30 se and the samples were incubated at RT in the dark for 45 minutes followed by washing 2×FACS buffer (spin @2300 rpm×5 min after perm). Resuspend 20 ul (35 uL total per well) of FACS buffer and cover with foil and place in 4° C. to read the following day. Plates were read on iQuePlus. The results were loaded into toolset and […] curves are generated in curve master. The y-axis 100% is set to 1 uM of resiquimod.

human TLR7 = target: T1, human TLR7 (Homo sapiens, UniProt Q9NYK1); test: Human TLR7 agonist activity reporter assay (HEK-Blue TLR7 cells, SEAP reporter); type: cell-based; settings: human TLR7 (hTLR7) reporter assay, SEAP readout after 18 h, average where assay repeated, read-out: TLR7 Agonism EC50
T1 construct: host or cells: HEK-Blue TLR7 cells (engineered human embryonic kidney cells)
T1 sequence (Q9NYK1 27-1049): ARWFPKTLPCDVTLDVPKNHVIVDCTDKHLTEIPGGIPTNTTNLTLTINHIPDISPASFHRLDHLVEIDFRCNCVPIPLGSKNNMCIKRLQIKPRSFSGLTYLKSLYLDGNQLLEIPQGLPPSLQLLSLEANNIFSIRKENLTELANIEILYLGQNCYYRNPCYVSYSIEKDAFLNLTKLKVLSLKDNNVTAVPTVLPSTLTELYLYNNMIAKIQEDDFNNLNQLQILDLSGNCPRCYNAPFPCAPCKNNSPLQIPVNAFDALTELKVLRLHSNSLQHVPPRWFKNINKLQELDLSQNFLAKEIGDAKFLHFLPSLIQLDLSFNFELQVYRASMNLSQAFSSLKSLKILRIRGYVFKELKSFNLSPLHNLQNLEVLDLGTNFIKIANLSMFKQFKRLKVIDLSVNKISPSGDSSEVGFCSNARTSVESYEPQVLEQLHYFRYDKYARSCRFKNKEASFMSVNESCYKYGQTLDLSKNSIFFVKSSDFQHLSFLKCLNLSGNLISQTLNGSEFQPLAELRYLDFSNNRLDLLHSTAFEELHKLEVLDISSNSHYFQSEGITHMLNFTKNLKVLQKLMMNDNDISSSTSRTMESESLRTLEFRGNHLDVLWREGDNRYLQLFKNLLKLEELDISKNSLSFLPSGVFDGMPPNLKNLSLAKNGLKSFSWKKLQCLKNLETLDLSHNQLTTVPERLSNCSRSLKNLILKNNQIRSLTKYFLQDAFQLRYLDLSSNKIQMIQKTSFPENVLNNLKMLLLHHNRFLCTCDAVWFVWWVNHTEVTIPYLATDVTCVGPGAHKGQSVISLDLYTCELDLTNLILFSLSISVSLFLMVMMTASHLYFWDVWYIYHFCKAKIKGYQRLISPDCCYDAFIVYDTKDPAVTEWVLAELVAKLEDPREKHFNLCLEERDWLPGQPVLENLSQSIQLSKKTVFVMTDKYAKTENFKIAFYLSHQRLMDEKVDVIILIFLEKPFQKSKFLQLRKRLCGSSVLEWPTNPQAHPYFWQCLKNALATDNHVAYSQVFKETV
Description: Human TLR7 Agonist Activity Assay
This procedure describes a method for assaying human TLR7 (hTLR7) agonist activity of the compounds disclosed in this specification.
HEK-Blue™ TLR7 cells were added to each well of a 384-well tissue-culture plate (15,000 cells per well) and incubated 16-18 h at 37° C., 5% CO2. Compounds (100 nl) were dispensed into wells containing the HEK-Blue™ TLR cells and the treated cells were incubated at 37° C., 5% CO2. After 18 h treatment ten microliters of freshly-prepared Quanti-Blue™ reagent (Invivogen) was added to each well, incubated for 30 min (37° C., 5% CO2) and SEAP levels measured using an Envision plate reader (OD=620 nm).

Compound	EC50 (CD69) [nM]	EC50 (human TLR7) [nM]
CCC[C@@H](CCO)Nc1nc(N)nc2cnn(Cc3ccc(C(=O)N4C[C@H]5CN(C)C[C@H]5C4)c4cccnc34)c12 [Compound 125, (3S)-3-{[1-([5-[(3aR,6aS)-5-methyl-octahydropyrrolo[3,4-c]pyrrole-2-carbonyl]quinolin-8-yl}methyl)-5-amino-1H-pyrazolo[4,3-d]pyrimidin-7-yl]amino}hexan-1-ol]	83.3	33.7
CCC[C@@H](CCO)Nc1nc(N)nc2cnn(Cc3cccc4cccnc34)c12 [Compound 110, (3S)-3-({5-amino-1-[(quinolin-8-yl)methyl]-1H-pyrazolo[4,3-d]pyrimidin-7-yl}amino)hexan-1-ol]	729	287
CCC[C@@H](CCO)Nc1nc(N)nc2c(C)nn(Cc3ccc(C(=O)NC4CCOCC4)c4cccnc34)c12 [Compound 119, 8-[(5-amino-7-{[(3S)-1-hydroxyhexan-3-yl]amino}-3-methyl-1H-pyrazolo[4,3-d]pyrimidin-1-yl)methyl]-N-(oxan-4-yl)quinoline-5-carboxamide]	1000	606
CCC[C@@H](CCO)Nc1nc(N)nc2cnn(Cc3ccc(CN4CC5(CCOCC5)C4)c4cccnc34)c12 [Compound 106, (3S)-3-[(5-amino-1-{[5-({7-oxa-2-azaspiro[3.5]nonan-2-yl}methyl)quinolin-8-yl]methyl}-1H-pyrazolo[4,3-d]pyrimidin-7-yl)amino]hexan-1-ol]	48.1	19.3
CCC[C@@H](CCO)Nc1nc(N)nc2cnn(Cc3ccc(CN4CC(OC)C4)c4cccnc34)c12 [Compound 102, (3S)-3-{[5-amino-1-({5-[(3-methoxyazetidin-1-yl)methyl]quinolin-8-yl}methyl)-1H-pyrazolo[4,3-d]pyrimidin-7-yl]amino}hexan-1-ol]	12.2	30.8
CCC[C@@H](CCO)Nc1nc(N)nc2cnn(Cc3ccc(C(=O)N4CCN(CCO)CC4)c4cccnc34)c12 [Compound 111, (3S)-3-{[5-amino-1-({5-[4-(2-hydroxyethyl)piperazine-1-carbonyl]quinolin-8-yl}methyl)-1H-pyrazolo[4,3-d]pyrimidin-7-yl]amino}hexan-1-ol]	57.7	66
Cc1cc(CNc2nc(N)nc3cnn(Cc4ccc(C(=O)NC5CCN(C)CC5)c5cccnc45)c23)no1 [Compound 122, 8-[(5-amino-7-{[(5-methyl-1,2-oxazol-3-yl)methyl]amino}-1H-pyrazolo[4,3-d]pyrimidin-1-yl)methyl]-N-(1-methylpiperidin-4-yl)quinoline-5-carboxamide]	54	309
CCCCNc1nc(N)nc2cnn(Cc3ccc(CNC4CCC4)c4cccnc34)c12 [Compound 101, N7-butyl-1-({5-[(cyclobutylamino)methyl]quinolin-8-yl}methyl)-1H-pyrazolo[4,3-d]pyrimidine-5,7-diamine]	47.1	93.3
CCC[C@@H](CCO)Nc1nc(N)nc2cnn(Cc3ccc(CNC4CCOCC4)c4cccnc34)c12 [Compound 104, (3S)-3-({5-amino-1-[(5-{[(oxan-4-yl)amino]methyl}quinolin-8-yl)methyl]-1H-pyrazolo[4,3-d]pyrimidin-7-yl}amino)hexan-1-ol]	13.4	

Further lines, results first:

EC50 (CD69) [nM]	EC50 (human TLR7) [nM]	Compound
80.1	126	CCC[C@@H](CCO)Nc1nc(N)nc2cnn(Cc3ccc(C(=O)N4CC(O)C4)c4cccnc34)c12 [Compound 135, 1-{8-[(5-amino-7-{[(3S)-1-hydroxyhexan-3-yl]amino}-1H-pyrazolo[4,3-d]pyrimidin-1-yl)methyl]quinoline-5-carbonyl}azetidin-3-ol]
49.7		CCC[C@@H](CCO)Nc1nc(N)nc2cnn(Cc3ccc(C(=O)N4CC5(CN(C)C5)C4)c4cccnc34)c12 [Compound 130, (3S)-3-({5-amino-1-[(5-{6-methyl-2,6-diazaspiro[3.3]heptane-2-carbonyl}quinolin-8-yl)methyl]-1H-pyrazolo[4,3-d]pyrimidin-7-yl}amino)hexan-1-ol]
91.9	54.8	CCC[C@@H](CCO)Nc1nc(N)nc2cnn(Cc3ccc(C(=O)N4CC5(COC5)C4)c4cccnc34)c12 [Compound 127, (3S)-3-({5-amino-1-[(5-{2-oxa-6-azaspiro[3.3]heptane-6-carbonyl}quinolin-8-yl)methyl]-1H-pyrazolo[4,3-d]pyrimidin-7-yl}amino)hexan-1-ol]
	6.1	CCC[C@@H](CCO)Nc1nc(N)nc2cnn(Cc3ccc(C4CCN(C(C)C)CC4)c4cccnc34)c12 [Compound 143, (3S)-3-{[5-amino-1-({5-[1-(propan-2-yl)piperidin-4-yl]quinolin-8-yl}methyl)-1H-pyrazolo[4,3-d]pyrimidin-7-yl]amino}hexan-1-ol]
102		CCC[C@@H](CCO)Nc1nc(N)nc2cnn(Cc3ccc(C(=O)N4CC(CCO)C4)c4cccnc34)c12 [Compound 132, (3S)-3-{[5-amino-1-({5-[3-(2-hydroxyethyl)azetidine-1-carbonyl]quinolin-8-yl}methyl)-1H-pyrazolo[4,3-d]pyrimidin-7-yl]amino}hexan-1-ol]
	8.6	CCC[C@@H](CCO)Nc1nc(N)nc2cnn(Cc3ccc(C4CCN(C5CCOCC5)CC4)c4cccnc34)c12 [Compound 142, (3S)-3-{[5-amino-1-({5-[1-(oxan-4-yl)piperidin-4-yl]quinolin-8-yl}methyl)-1H-pyrazolo[4,3-d]pyrimidin-7-yl]amino}hexan-1-ol]
83.3		CCC[C@@H](CCO)Nc1nc(N)nc2cnn(Cc3ccc(C(=O)N(C)C4CCOCC4)c4cccnc34)c12 [Compound 129, 8-[(5-amino-7-{[(3S)-1-hydroxyhexan-3-yl]amino}-1H-pyrazolo[4,3-d]pyrimidin-1-yl)methyl]-N-methyl-N-(oxan-4-yl)quinoline-5-carboxamide]
91.9		CCC[C@@H](CCO)Nc1nc(N)nc2cnn(Cc3ccc(C(=O)N4CCN(CCOC)CC4)c4cccnc34)c12 [Compound 131, (3S)-3-{[5-amino-1-({5-[4-(2-methoxyethyl)piperazine-1-carbonyl]quinolin-8-yl}methyl)-1H-pyrazolo[4,3-d]pyrimidin-7-yl]amino}hexan-1-ol]
